{"source": "PubChem BioAssay (NCI)", "assay_in_all_cases": "DTP human tumour cell line panel, 384-well format", "key": {"UO-31 renal": {"system": "UO-31 renal"}, "SF-295 CNS": {"system": "SF-295 CNS"}, "RXF 393 renal": {"system": "RXF 393 renal"}, "BT-549 breast": {"system": "BT-549 breast"}, "A549 NSCLC": {"system": "A549 NSCLC"}, "SNB-19 CNS": {"system": "SNB-19 CNS"}, "TK-10 renal": {"system": "TK-10 renal"}, "T-47D breast": {"system": "T-47D breast"}, "NCI-H460 NSCLC": {"system": "NCI-H460 NSCLC"}, "MCF7 breast": {"system": "MCF7 breast"}, "MOLT-4 leukemia": {"system": "MOLT-4 leukemia"}, "MALME-3M melanoma": {"system": "MALME-3M melanoma"}, "HOP-92 NSCLC": {"system": "HOP-92 NSCLC"}}, "note": "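Abbreviation: GI50, concentration required for 50% inhibition of growth. The concentration for full growth arrest is given as TGI.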", "data": [{"smiles": "COC(=O)c1ccc2c(C(=Nc3ccc(N(C)C(=O)CN4CCN(C)CC4)cc3)c3ccccc3)c(O)[nH]c2c1", "values": [{"measurement": "GI50", "setting": "UO-31 renal", "result": 1400, "unit": "nM"}, {"measurement": "TGI", "setting": "UO-31 renal", "result": 2930, "unit": "nM"}, {"measurement": "GI50", "setting": "SF-295 CNS", "result": 1830, "unit": "nM"}, {"measurement": "TGI", "setting": "SF-295 CNS", "result": 3250, "unit": "nM"}, {"measurement": "GI50", "setting": "RXF 393 renal", "result": 1110, "unit": "nM"}, {"measurement": "TGI", "setting": "RXF 393 renal", "result": 2580, "unit": "nM"}, {"measurement": "GI50", "setting": "BT-549 breast", "result": 1490, "unit": "nM"}, {"measurement": "TGI", "setting": "BT-549 breast", "result": 2830, "unit": "nM"}, {"measurement": "GI50", "setting": "A549 NSCLC", "result": 1740, "unit": "nM"}, {"measurement": "TGI", "setting": "A549 NSCLC", "result": 3320, "unit": "nM"}, {"measurement": "GI50", "setting": "SNB-19 CNS", "result": 1440, "unit": "nM"}, {"measurement": "TGI", "setting": "SNB-19 CNS", "result": 4320, "unit": "nM"}, {"measurement": "GI50", "setting": "TK-10 renal", "result": 1830, "unit": "nM"}, {"measurement": "TGI", "setting": "TK-10 renal", "result": 3820, "unit": "nM"}, {"measurement": "GI50", "setting": "T-47D breast", "result": 1370, "unit": "nM"}, {"measurement": "TGI", "setting": "T-47D breast", "result": 2720, "unit": "nM"}, {"measurement": "GI50", "setting": "NCI-H460 NSCLC", "result": 1870, "unit": "nM"}, {"measurement": "TGI", "setting": "NCI-H460 NSCLC", "result": 3300, "unit": "nM"}, {"measurement": "GI50", "setting": "MCF7 breast", "result": 1320, "unit": "nM"}, {"measurement": "TGI", "setting": "MCF7 breast", "result": 2760, "unit": "nM"}, {"measurement": "GI50", "setting": "MOLT-4 leukemia", "result": 730, "unit": "nM"}, {"measurement": "TGI", "setting": "MOLT-4 leukemia", "result": 2090, "unit": "nM"}, {"measurement": "GI50", "setting": "MALME-3M melanoma", "result": 1460, "unit": "nM"}, {"measurement": "TGI", "setting": "MALME-3M melanoma", "result": 2780, "unit": "nM"}, {"measurement": "GI50", "setting": "HOP-92 NSCLC", "result": 950, "unit": "nM"}, {"measurement": "TGI", "setting": "HOP-92 NSCLC", "result": 2600, "unit": "nM"}]}]}
